Assay results reported in the supplement of paper PMC12350171.

Tests used:
Bacteroides fragilis NT = assay: IC25 growth inhibition; higher = less potent
Outline: (§1)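 Monocultures grown overnight in mGAM were added to pre-reduced plates holding twofold drug dilutions, giving a starting OD578 of 0.01 and 1% DMSO (or water). Growth was followed anaerobically by hourly OD578 readings in a plate reader, with at least three biological replicates. The median growth-curve AUC per concentration was forced to be monotonic. IC25 was the lowest concentration with median AUC below 0.75, reported as a tested interval.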

[1] = test system: Bacteroides thetaiotaomicron; assay: IC25 growth inhibition; higher = less potent
Outline: as §1

Bacteroides uniformis = assay: IC25 growth inhibition; higher = less potent
Outline: as §1

Bacteroides vulgatus = assay: IC25 growth inhibition; higher = less potent
Outline: as §1

Clostridium bolteae = assay: IC25 growth inhibition; higher = less potent
Outline: as §1

Clostridium perfringens = assay: IC25 growth inhibition; higher = less potent
Outline: as §1

Clostridium ramosum = assay: IC25 growth inhibition; higher = less potent
Outline: as §1

[2] = test system: Clostridium saccharolyticum; assay: IC25 growth inhibition; higher = less potent
Outline: as §1

Collinsella aerofaciens = assay: IC25 growth inhibition; higher = less potent
Outline: as §1

Coprococcus comes = assay: IC25 growth inhibition; higher = less potent
Outline: as §1

Dorea formicigenerans = assay: IC25 growth inhibition; higher = less potent
Outline: as §1

Escherichia coli ED1a = assay: IC25 growth inhibition; higher = less potent
Outline: as §1

Eubacterium rectale = assay: IC25 growth inhibition; higher = less potent
Outline: as §1

[3] = test system: Fusobacterium nucleatum subsp. Nucleatum; assay: IC25 growth inhibition; higher = less potent
Outline: as §1

Parabacteroides merdae = assay: IC25 growth inhibition; higher = less potent
Outline: as §1

Roseburia intestinalis = assay: IC25 growth inhibition; higher = less potent
Outline: as §1

Ruminococcus gnavus = assay: IC25 growth inhibition; higher = less potent
Outline: as §1

[4] = test system: Salmonella enterica typhimurium; assay: IC25 growth inhibition; higher = less potent
Outline: as §1

Shigella flexneri = assay: IC25 growth inhibition; higher = less potent
Outline: as §1

[5] = test system: Streptococcus parasanguinis; assay: IC25 growth inhibition; higher = less potent
Outline: as §1

Streptococcus salivarius = assay: IC25 growth inhibition; higher = less potent
Outline: as §1

Vibrio cholerae = assay: IC25 growth inhibition; higher = less potent
Outline: as §1

[6] = test system: Yersinia enterocolitica WA-314; assay: IC25 growth inhibition; higher = less potent
Outline: as §1

[7] = test system: Yersinia pseudotuberculosis; assay: IC25 growth inhibition; higher = less potent
Outline: as §1

[8] = test system: Com21 synthetic gut community; assay: community biomass OD578 after 24 h drug treatment relative to untreated (fraction of untreated control); higher = more community growth; conditions: community: Com21 (Com20 + E. coli ED1a)
Method: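 Com21 (Com20 plus E. coli ED1a) was treated with drug for 24 h under anaerobic conditions in mGAM. Community OD578 was then measured and normalised to untreated Com21; mean of 3 biological replicates.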

[9] = drug pretreatment concentration 10 µM
[10] = drug pretreatment concentration 20 µM
[11] = drug pretreatment concentration 40 µM
[12] = drug pretreatment concentration 80 µM
[13] = drug pretreatment concentration 160 µM
[14] = drug pretreatment concentration 2.5 µM
[15] = drug pretreatment concentration 5 µM
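Wherever IC25 growth inhibition is given: lowest concentration where monotonic median growth AUC falls below 0.75 of drug-free control.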

| Compound | IC25 growth inhibition (Bacteroides fragilis NT) [µM] | IC25 growth inhibition [1] [µM] | IC25 growth inhibition (Bacteroides uniformis) [µM] | IC25 growth inhibition (Bacteroides vulgatus) [µM] | IC25 growth inhibition (Clostridium bolteae) [µM] | IC25 growth inhibition (Clostridium perfringens) [µM] | IC25 growth inhibition (Clostridium ramosum) [µM] | IC25 growth inhibition [2] [µM] | IC25 growth inhibition (Collinsella aerofaciens) [µM] | IC25 growth inhibition (Coprococcus comes) [µM] | IC25 growth inhibition (Dorea formicigenerans) [µM] | IC25 growth inhibition (Escherichia coli ED1a) [µM] | IC25 growth inhibition (Eubacterium rectale) [µM] | IC25 growth inhibition [3] [µM] | IC25 growth inhibition (Parabacteroides merdae) [µM] | IC25 growth inhibition (Roseburia intestinalis) [µM] | IC25 growth inhibition (Ruminococcus gnavus) [µM] | IC25 growth inhibition [4] [µM] | IC25 growth inhibition (Shigella flexneri) [µM] | IC25 growth inhibition [5] [µM] | IC25 growth inhibition (Streptococcus salivarius) [µM] | IC25 growth inhibition (Vibrio cholerae) [µM] | IC25 growth inhibition [6] [µM] | IC25 growth inhibition [7] [µM] | community biomass OD578 [8, 9] | community biomass OD578 [8, 10] | community biomass OD578 [8, 11] | community biomass OD578 [8, 12] | community biomass OD578 [8, 13] | community biomass OD578 [8, 14] | community biomass OD578 [8, 15] |
| --- | --- | --- | --- | --- | --- | --- | --- | --- | --- | --- | --- | --- | --- | --- | --- | --- | --- | --- | --- | --- | --- | --- | --- | --- | --- | --- | --- | --- | --- | --- | --- |
| Cc1c(OCC(F)(F)F)ccnc1C[S+]([O-])c1nc2ccccc2[nH]1 (configuration not stated) [Lansoprazole] | > 160 | > 160 | ≤ 160 | > 160 | > 160 | > 160 | > 160 | > 160 | ≤ 160 | > 160 | ≤ 160 | > 160 | > 80 | > 160 | > 160 | > 160 | > 160 | > 160 | > 160 | > 160 | > 160 | > 160 | > 160 | > 160 | 0.935 | 0.962 | 0.952 | 0.945 | 0.926 | – | – |
| CCOC(=O)N1CCC(=C2c3ccc(Cl)cc3CCc3cccnc32)CC1 [Loratadine] | > 160 | > 160 | > 160 | > 160 | > 160 | > 160 | ≤ 80 | > 160 | > 160 | > 40 | > 160 | > 40 | > 160 | > 160 | ≤ 40 | > 160 | > 80 | > 40 | > 160 | > 160 | > 160 | > 160 | > 80 | > 40 | 1.02 | 1.01 | 0.941 | – | – | 1 | 1.01 |
| CN1CCN(C2=Nc3ccccc3Oc3ccc(Cl)cc32)CC1 [Loxapine] | ≤ 80 | ≤ 40 | ≤ 160 | ≤ 10 | > 160 | ≤ 160 | > 160 | > 160 | > 160 | > 40 | ≤ 160 | > 160 | ≤ 40 | ≤ 160 | ≤ 10 | ≤ 160 | ≤ 160 | > 160 | > 160 | > 160 | ≤ 160 | ≤ 80 | > 160 | > 160 | 0.993 | 0.996 | 0.991 | 0.987 | 0.951 | – | – |
| CN(C)C(=N)NC(=N)N [Metformin] | > 160 | > 160 | > 160 | > 160 | > 160 | > 160 | > 160 | > 160 | > 160 | > 160 | > 160 | > 160 | > 160 | > 160 | > 160 | > 160 | > 160 | > 160 | > 160 | > 160 | > 160 | > 160 | > 160 | > 160 | 1.02 | 1.01 | 1.01 | 1.02 | 1.03 | – | – |
| CN(Cc1cnc2nc(N)nc(N)c2n1)c1ccc(C(=O)N[C@@H](CCC(=O)O)C(=O)O)cc1 [Methotrexate] | ≤ 40 | > 80 | ≤ 10 | ≤ 20 | ≤ 10 | ≤ 20 | < 1.25 | > 80 | ≤ 80 | ≤ 80 | ≤ 40 | > 40 | ≤ 80 | ≤ 20 | > 80 | > 80 | ≤ 10 | > 80 | > 80 | < 1.25 | ≤ 5 | ≤ 40 | > 80 | > 80 | 0.934 | 0.95 | 0.802 | – | – | 0.93 | 0.91 |
| Clc1ccc(COC(Cn2ccnc2)c2ccc(Cl)cc2Cl)c(Cl)c1 (configuration not stated) [Miconazole] | > 160 | > 160 | > 160 | ≤ 160 | ≤ 80 | ≤ 40 | ≤ 10 | ≤ 40 | ≤ 10 | ≤ 5 | ≤ 5 | > 80 | ≤ 2.5 | > 40 | ≤ 80 | ≤ 5 | ≤ 10 | > 160 | > 40 | > 160 | > 80 | > 40 | ≤ 160 | > 40 | 1.02 | 0.969 | 0.893 | 0.702 | 0.547 | – | – |
| O=C(Nc1ccc([N+](=O)[O-])cc1Cl)c1cc(Cl)ccc1O [Niclosamide] | < 1.25 | < 1.25 | < 1.25 | < 1.25 | > 80 | ≤ 2.5 | ≤ 2.5 | ≤ 20 | ≤ 5 | ≤ 20 | ≤ 20 | > 80 | ≤ 5 | ≤ 80 | < 1.25 | ≤ 20 | ≤ 10 | > 160 | > 40 | < 1.25 | < 1.25 | < 1.25 | > 160 | > 20 | 0.912 | 0.901 | 0.897 | 0.823 | 0.811 | – | – |
| COc1ccc2[nH]c([S+]([O-])Cc3ncc(C)c(OC)c3C)nc2c1 (configuration not stated) [Omeprazole] | > 160 | > 160 | > 160 | > 160 | > 160 | > 160 | > 160 | > 160 | > 160 | > 160 | > 160 | > 160 | > 160 | > 160 | > 160 | > 160 | > 160 | > 160 | > 160 | > 160 | > 160 | > 160 | > 160 | > 160 | 0.981 | 0.997 | 1.01 | 0.979 | 0.95 | – | – |
